Reference: article PMC12649549, “Sequence Permutation Generated Lysine and Tryptophan-Rich Antimicrobial Peptides with Enhanced Therapeutic Index” (Antibiotics, 2025)
Like-named read-outs stand apart in the source and are kept apart here.

What was measured:
S. aureus ATCC 25923 = test system: S. aureus ATCC 25923
Procedure: (§1) The antibacterial and salt-resistant activity of the peptides was tested using Escherichia coli (ATCC 25922), Pseudomonas aeruginosa Migula (ATCC 27853), Acinetobacter sp. (BCRC number 14B0091, BCRC number 14B0097, and BCRC number 14B0100), and Staphylococcus aureus sp. strains (ATCC 25923, ATCC 33591, ATCC 33592, ATCC 33593, and ATCC 6538). All bacteria were obtained from the Food Industry Research and Development Institute (Hsinchu, Taiwan) and cultured in sterilized Müller-Hinton (MH) broth at 37 °C and 200 rpm for 8 h. The inoculum concentrations were determined by measuring the optical density at 600 nm (OD 600 = 1, approximately 10^8 CFU/mL) using an Ultrospec 2100 pro UV-Visible spectrophotometer (Biochrom Ltd., Cambridge, UK) after 8 h of culture.
(§2) The antibacterial activities of the peptides in Müller-Hinton (MH) broth and modified LYM broth were determined using the standard broth microdilution method as per Clinical and Laboratory Standards Institute (CLSI) guidelines. The LYM broth was prepared with specific components and adjusted to different conditions, including varying concentrations of NaCl and MgCl2, and different pH levels. To prepare the LYM broth, 5.4 mM KCl, 5.6 mM Na2HPO4, 0.5 mM MgSO4, and 1.0 mM sodium citrate were added. Additionally, 0.4 mg of ZnCl2, 2.0 mg of FeCl3·6H2O, 0.1 mg of CuSO4·5H2O, 0.1 mg of MnSO4·H2O, 0.1 mg of Na2B4O7∙10H2O, 700 mg of amino acid mixtures without tryptophan (Takara Bio Inc., San Jose, CA, USA), and 20 mg of L-tryptophan were added per liter of medium. The pH was adjusted to 7.4, and a vitamin mixture (100X, Sigma) and glucose concentration of 2% were added. For different conditions of LYM broth, NaCl concentrations of 300, 200, 150, and 50 mM, MgCl2 concentrations of 2.5, 1.5, and 0.5 mM, and pH levels of 6.5, 5.5, and 4.5 were adjusted. Bacterial strains were incubated in MH broth overnight, regrown, and diluted to a final concentration of 5 × 10^5 CFU/mL. Peptides were added to each well at final concentrations of 50, 25, 12.5, 6.25, 3.13, 1.56, and 0.78 µg/mL, and 99 µL of diluted microbes was loaded into each well of a polypropylene 96-well plate. […] The Morpheus HeatMap software (https://software.broadinstitute.org/morpheus/) was used to display MIC values on a color scale. All experiments were independently repeated three times.

[1] = test system: Escherichia coli (ATCC 25922)
Procedure: as §1, §2

S. aureus ATCC 6538 = test system: S. aureus ATCC 6538
Procedure: as §1, §2

S. aureus ATCC 33591 = test system: S. aureus ATCC 33591
Procedure: as §1, §2

[2] = test system: A. baumannii 14B0091 (Acinetobacter sp., BCRC number 14B0091)
Procedure: as §1, §2

[3] = test system: A. baumannii 14B00100 (Acinetobacter sp., BCRC number 14B0100)
Procedure: as §1, §2

Gram-negative bacteria = assay: Geometric mean MIC and therapeutic index, Gram-negative bacteria; format: cell-based; conditions: Gram-negative bacteria
Procedure: In this study, we aimed to investigate the potential of W5K series peptides for therapeutic use. To evaluate their efficacy for antibacterial therapy, we used the Therapeutic Index (TI) as a measure of their cell selectivity. The TI was calculated as the ratio of the concentration causing 10% hemolysis of human red blood cells (HC10) to the geometric mean minimum inhibitory concentration (GM) of the peptides against both Gram-negative and Gram-positive bacteria. This parameter was used to quantitatively assess the balance between antibacterial potency and cytotoxicity among the W5K derivatives.
as §2

[4] = LYM broth, 0 mM NaCl, 16 h, 37 °C
[5] = LYM broth, 50 mM NaCl, 16 h, 37 °C
[6] = LYM broth, 100 mM NaCl, 16 h, 37 °C
[7] = LYM broth, 200 mM (NaCl), 16 h, 37 °C
[8] = LYM broth, 300 mM (NaCl), 16 h, 37 °C
[9] = MH broth, 5 × 10^5 CFU/mL, 16 h, 37 °C, repeated three times

Ac-KKWRKWLKWLAKK-NH2 [W5K/A9W]
MIC (S. aureus ATCC 25923; [4]): 1.56 mg/L
MIC (S. aureus ATCC 25923; LYM broth, 0.5 mM MgCl2): 1.56 mg/L
MIC (S. aureus ATCC 25923; LYM broth, 1.5 mM MgCl2): 3.13 mg/L
MIC (S. aureus ATCC 25923; LYM broth, 2.5 mM MgCl2): 3.13 mg/L
MIC (S. aureus ATCC 25923; [5]): 1.56 mg/L
MIC (S. aureus ATCC 25923; [6]): 3.13 mg/L
MIC (S. aureus ATCC 25923; [7]): 3.13 mg/L
MIC (S. aureus ATCC 25923; [8]): 6.25 mg/L
MIC (S. aureus ATCC 25923; LYM broth, pH 4.5): 3.13 mg/L
MIC (S. aureus ATCC 25923; LYM broth, pH 5.5): 1.56 mg/L
MIC (S. aureus ATCC 25923; LYM broth, pH 6.5): 1.56 mg/L
MIC (S. aureus ATCC 25923; [9]): 3.13 mg/L
MIC [1, 4]: 1.56 mg/L
MIC ([1]; LYM broth, 0.5 mM MgCl2): 3.13 mg/L
MIC ([1]; LYM broth, 1.5 mM MgCl2): 3.13 mg/L
MIC ([1]; LYM broth, 2.5 mM MgCl2): 6.25 mg/L
MIC [1, 5]: 1.56 mg/L
MIC [1, 6]: 3.13 mg/L
MIC [1, 7]: 3.13 mg/L
MIC [1, 8]: 12.5 mg/L
MIC ([1]; LYM broth, pH 4.5): 1.56 mg/L
MIC ([1]; LYM broth, pH 5.5): 1.56 mg/L
MIC ([1]; LYM broth, pH 6.5): 1.56 mg/L
MIC [1, 9]: 3.13 mg/L
MIC (S. aureus ATCC 6538; [4]): 1.56 mg/L
MIC (S. aureus ATCC 6538; LYM broth, 0.5 mM MgCl2): 1.56 mg/L
MIC (S. aureus ATCC 6538; LYM broth, 1.5 mM MgCl2): 1.56 mg/L
MIC (S. aureus ATCC 6538; LYM broth, 2.5 mM MgCl2): 1.56 mg/L
MIC (S. aureus ATCC 6538; [5]): 1.56 mg/L
MIC (S. aureus ATCC 6538; [6]): 1.56 mg/L
MIC (S. aureus ATCC 6538; [7]): 3.13 mg/L
MIC (S. aureus ATCC 6538; [8]): 6.25 mg/L
MIC (S. aureus ATCC 6538; LYM broth, pH 4.5): 3.13 mg/L
MIC (S. aureus ATCC 6538; LYM broth, pH 5.5): 1.56 mg/L
MIC (S. aureus ATCC 6538; LYM broth, pH 6.5): 1.56 mg/L
MIC (S. aureus ATCC 6538; [9]): 6.25 mg/L
MIC (S. aureus ATCC 33591; [4]): 3.13 mg/L
MIC (S. aureus ATCC 33591; LYM broth, 0.5 mM MgCl2): 3.13 mg/L
MIC (S. aureus ATCC 33591; LYM broth, 1.5 mM MgCl2): 3.13 mg/L
MIC (S. aureus ATCC 33591; LYM broth, 2.5 mM MgCl2): 3.13 mg/L
MIC (S. aureus ATCC 33591; [5]): 3.13 mg/L
MIC (S. aureus ATCC 33591; [6]): 6.25 mg/L
MIC (S. aureus ATCC 33591; [7]): 6.25 mg/L
MIC (S. aureus ATCC 33591; [8]): 12.5 mg/L
MIC (S. aureus ATCC 33591; LYM broth, pH 4.5): 3.13 mg/L
MIC (S. aureus ATCC 33591; LYM broth, pH 5.5): 3.13 mg/L
MIC (S. aureus ATCC 33591; LYM broth, pH 6.5): 3.13 mg/L
MIC (S. aureus ATCC 33591; [9]): 12.5 mg/L
MIC [2, 4]: 1.56 mg/L
MIC ([2]; LYM broth, 0.5 mM MgCl2): 1.56 mg/L
MIC ([2]; LYM broth, 1.5 mM MgCl2): 1.56 mg/L
MIC ([2]; LYM broth, 2.5 mM MgCl2): 1.56 mg/L
MIC [2, 5]: 1.56 mg/L
MIC [2, 6]: 1.56 mg/L
MIC [2, 7]: 1.56 mg/L
MIC [2, 8]: 1.56 mg/L
MIC ([2]; LYM broth, pH 4.5): 1.56 mg/L
MIC ([2]; LYM broth, pH 5.5): 1.56 mg/L
MIC ([2]; LYM broth, pH 6.5): 1.56 mg/L
MIC [2, 9]: 1.56 mg/L
MIC [3, 4]: 1.56 mg/L
MIC ([3]; LYM broth, 0.5 mM MgCl2): 1.56 mg/L
MIC ([3]; LYM broth, 1.5 mM MgCl2): 1.56 mg/L
MIC ([3]; LYM broth, 2.5 mM MgCl2): 1.56 mg/L
MIC [3, 5]: 1.56 mg/L
MIC [3, 6]: 1.56 mg/L
MIC [3, 7]: 1.56 mg/L
MIC [3, 8]: 1.56 mg/L
MIC ([3]; LYM broth, pH 4.5): 1.56 mg/L
MIC ([3]; LYM broth, pH 5.5): 1.56 mg/L
MIC ([3]; LYM broth, pH 6.5): 1.56 mg/L
MIC [3, 9]: 1.56 mg/L
GM G− (geometric mean of the MIC values) (Gram-negative bacteria; MH broth, MIC >50 µg/mL counted as 100 µg/mL): 2.1 mg/L
Therapeutic Index (TI) G− (Gram-negative bacteria; HC10/GM): 14.5
